{"source": "patent US9688628B1", "about": "“Drug repositioning: urease inhibitory activity of (2S)-1-[(2S)-2-methyl-3-sulfanylpropanoyl]pyrrolidine-2-carboxylic acid (captopril)” (priority 2016, dated 2017)", "key": {"[1]": {"molecular_target": "T1, Jack bean urease (Canavalia ensiformis, UniProt P07374)", "T1 construct": "purchased Sigma-Aldrich (USA) Type IX", "T1 sequence (P07374 whole entry, looked up)": "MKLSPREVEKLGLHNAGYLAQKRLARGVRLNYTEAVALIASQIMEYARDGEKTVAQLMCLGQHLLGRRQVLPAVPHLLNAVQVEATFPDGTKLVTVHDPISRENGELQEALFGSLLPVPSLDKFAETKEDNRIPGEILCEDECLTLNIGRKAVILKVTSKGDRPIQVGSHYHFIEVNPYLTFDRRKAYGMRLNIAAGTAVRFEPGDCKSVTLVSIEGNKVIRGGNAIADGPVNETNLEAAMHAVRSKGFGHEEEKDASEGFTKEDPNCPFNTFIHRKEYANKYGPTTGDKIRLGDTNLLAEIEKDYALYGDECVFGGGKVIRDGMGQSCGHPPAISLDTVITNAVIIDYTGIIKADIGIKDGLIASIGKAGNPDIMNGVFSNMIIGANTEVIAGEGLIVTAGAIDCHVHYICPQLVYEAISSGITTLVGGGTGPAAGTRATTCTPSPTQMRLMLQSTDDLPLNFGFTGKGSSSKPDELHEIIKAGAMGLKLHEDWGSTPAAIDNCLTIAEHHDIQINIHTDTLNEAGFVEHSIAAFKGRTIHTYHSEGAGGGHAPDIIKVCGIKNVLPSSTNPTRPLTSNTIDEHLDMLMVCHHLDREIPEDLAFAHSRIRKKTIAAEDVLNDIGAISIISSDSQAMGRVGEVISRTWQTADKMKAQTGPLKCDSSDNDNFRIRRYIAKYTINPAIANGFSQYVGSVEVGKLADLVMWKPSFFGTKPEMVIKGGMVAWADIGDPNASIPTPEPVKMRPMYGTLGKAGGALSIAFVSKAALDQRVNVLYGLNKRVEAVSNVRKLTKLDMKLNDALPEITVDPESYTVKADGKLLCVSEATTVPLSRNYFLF", "assay": "biochemical"}, "[2]": {"molecular_target": "T1, Jack bean urease", "assay": "mechanistic (kinetic) studies on urease", "format": "biochemical", "method": "For mechanistic studies, urease enzyme solution (1 U/200 μL) was incubated with different concentrations of inhibitors for 15 min at 30° C. The reaction was initiated by adding different concentrations of substrate (0.5-4.0 mM), then phenol and alkali reagent were added and change in absorbance was measured for 50 minutes at 630 nm on microtitre plate reader (Spectra Max M5, Molecular Devices, CA, USA).\nThe IC50 values were calculated by the EZ-Fit enzyme kinetics program (Perellela Scientific, Inc., Amherst, USA). Lineweaver-Burk plot, secondary plot, and Dixon plot were plotted by using Grafit 7 (Erithacus Software Limited, UK). Grafit 7 program was used to evaluate the correlation coefficients, slopes, and intercepts by linear regression analysis."}}}
{"smiles": "C[C@H](CS)C(=O)N1CCC[C@H]1C(=O)O", "note": "[Captopril, (2S)-1-[(2S)-2-methyl-3-sulfanylpropanoyl]pyrrolidine-2-carboxylic acid]", "values": [{"measurement": "IC50", "setting": "[1]", "value": "27 ± 1.97", "unit": "µM"}, {"measurement": "type of inhibition (Lineweaver-Burk plot)", "setting": "[2]; FIG. 2A, apparent Km and Vmax changed", "value": "mixed-type inhibitor"}, {"measurement": "type of inhibition (Dixon plot)", "setting": "[2]; FIG. 2C, 1/Vmax vs [I]", "value": "non-competitive"}]}
